Source: ChEMBL document CHEMBL1150440, “Tryptophan-norleucine 1,5-disubstituted tetrazoles as cis peptide bond mimics: Investigation of the bioactive conformation of a potent and selective peptide for the cholecystokinin-B receptor” (Bioorg Med Chem Lett, 1993)
Starred links: 1 amine or outer side, 2 acyl side, 3 side chain; linkers in the order of their positions; H or OH if unused. Non-standard residues stand in square brackets, D forms with d. Residues, ends and D or L forms follow the SMILES beside them. X1 = CCCC1C[C@@H](C(=O)[*:2])N([*:1])C1; NMeNle = CCCC[C@H](NC)C(=O)O; Nle = CCCC[C@H](N)C(=O)O

Tests used:
[1] = target: T1, Cholecystokinin receptor type A (Homo sapiens, UniProt P32238); assay: Compound was tested for its binding affinity towards Cholecystokinin type A receptor in pancreatic membranes; assay type: cell membranes
T1 sequence (P32238 whole entry): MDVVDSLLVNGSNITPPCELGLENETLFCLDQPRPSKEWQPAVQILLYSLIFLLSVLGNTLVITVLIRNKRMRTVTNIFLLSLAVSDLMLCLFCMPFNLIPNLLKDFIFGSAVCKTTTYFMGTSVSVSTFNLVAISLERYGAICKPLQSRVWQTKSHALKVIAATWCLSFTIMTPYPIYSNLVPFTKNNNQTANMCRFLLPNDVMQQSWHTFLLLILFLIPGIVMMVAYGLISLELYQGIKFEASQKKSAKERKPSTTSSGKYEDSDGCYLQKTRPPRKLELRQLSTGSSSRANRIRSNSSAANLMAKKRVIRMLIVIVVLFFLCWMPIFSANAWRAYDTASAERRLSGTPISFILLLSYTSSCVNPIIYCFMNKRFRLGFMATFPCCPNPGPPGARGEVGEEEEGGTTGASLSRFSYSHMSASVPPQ

[2] = target: T2, Gastrin/cholecystokinin type B receptor (Homo sapiens, UniProt P32239); assay: Compound was tested for its binding affinity towards Cholecystokinin type B receptor in cortical membranes (CNS); assay type: cell membranes
T2 sequence (P32239 whole entry): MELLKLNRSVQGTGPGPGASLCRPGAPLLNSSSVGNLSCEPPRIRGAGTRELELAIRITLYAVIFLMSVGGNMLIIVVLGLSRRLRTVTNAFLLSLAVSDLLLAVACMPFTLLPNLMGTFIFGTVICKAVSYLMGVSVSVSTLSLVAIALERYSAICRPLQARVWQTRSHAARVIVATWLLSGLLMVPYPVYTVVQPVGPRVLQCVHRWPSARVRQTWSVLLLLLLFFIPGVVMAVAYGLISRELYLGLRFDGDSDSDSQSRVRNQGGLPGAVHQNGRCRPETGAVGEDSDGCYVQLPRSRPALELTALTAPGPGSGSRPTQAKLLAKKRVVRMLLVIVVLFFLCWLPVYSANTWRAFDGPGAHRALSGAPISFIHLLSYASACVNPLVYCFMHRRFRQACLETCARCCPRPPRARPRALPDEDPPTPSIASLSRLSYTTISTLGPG

[3] = target: T3, Cholecystokinin receptor type A (Homo sapiens) (UniProt P32238); assay: Ratio of binding affinity of Cholecystokinin type A receptor […]
T3 sequence (whole entry): T1 sequence (P32238 whole entry)

Q: For `CCCCC(C(=O)OCc1ccccc1)n1nnnc1C(Cc1cn(C(=O)OCc2ccccc2)c2ccccc12)NC(=O)OCc1ccccc1` (stereo not drawn), which IC50 [1] is on record?
A: > 10000 nM

Q: And the IC50 [2]?
A: > 10000 nM

Q: What does the source list for `CCCC[C@@H](C(=O)N[C@@H](CC(=O)O)[C@@H](Cc1ccccc1)C(N)=O)n1nnnc1[C@H](Cc1c[nH]c2ccccc12)NC(=O)CN`?
A: IC50 [1]: > 10000 nM; IC50 [2]: 4530 nM; Ratio [3]: > 1.9

Q: `CCCC[C@@H](C(=O)N[C@@H](CC(=O)O)C(=O)N[C@@H](Cc1ccccc1)C(N)=O)N(C)C(=O)[C@H](Cc1c[nH]c2ccccc12)NC(=O)CN` (H-GW[NMeNle]DF-NH2) was tested. Which IC50 [1] did it give?
A: > 10000 nM

Q: How did the IC50 [1] turn out when `CCCC[C@H](NC(=O)[C@H](Cc1c[nH]c2ccccc12)NC(=O)CN)C(=O)N[C@@H](CC(=O)O)C(=O)N[C@@H](Cc1ccccc1)C(N)=O` (H-GW[Nle]DF-NH2) was run?
A: 2180 nM

Q: What about the IC50 [2] of the same compound?
A: 169 nM

Q: And the Ratio [3]?
A: 12.9

Q: Which results are given for `CCCC1C[C@@H](C(=O)N[C@@H](CC(=O)O)C(=O)N[C@@H](Cc2ccccc2)C(N)=O)N(C(=O)[C@H](Cc2c[nH]c3ccccc23)NC(=O)CN)C1` (stereo partly drawn) (H-GW[X1]DF-NH2)?
A: IC50 [1]: 2700 nM; IC50 [2]: 1.9 nM; Ratio [3]: 1420

Q: What does the source list for `CCCC[C@@H](C(=O)N[C@@H](CC(=O)OCc1ccccc1)[C@@H](Cc1ccccc1)C(N)=O)n1nnnc1[C@H](Cc1c[nH]c2ccccc12)NC(=O)CNC(=O)OC(C)(C)C` (mixture of isomers)?
A: IC50 [1]: 364 nM; IC50 [2]: 4250 nM; Ratio [3]: 0.09

Q: Which IC50 [1] does the source give for `CCCC[C@@H](C(=O)N[C@@H](CC(=O)OCc1ccccc1)[C@@H](Cc1ccccc1)C(N)=O)n1nnnc1[C@H](Cc1c[nH]c2ccccc12)NC(=O)OC(C)(C)C` (mixture of isomers) here?
A: 36.7 nM

Q: And the IC50 [2]?
A: 1880 nM

Q: What about the Ratio [3] of the same compound?
A: 0.02
